Like-named read-outs stand apart in the source and are kept apart here.
Assays:
[1] = Acute toxicity (mortality, LD50) in mice; type: in vivo; conditions: in vivo, mouse
souris = assay: Acute toxicity (mortality, LD50) in mice; type: in vivo; conditions: mouse
[2] = tested on: contractions de strips aortiques isolés de lapin induites par la noradrénaline; assay: Alpha-blocking activity in vitro: antagonism of noradrenaline-induced contractions of isolated rabbit aortic strips; type: cell-based; conditions: Oryctolagus cuniculus, 1 h; noradrenaline 2.10^-6 mole/l; compound added 60 mn before the agonist; limits in brackets; read-out: CI50 (concentration inhibant 50% des contractions)
Text: Activité alohabloauante : In vitro l'activité alphabloquante est appréciée par la détermination de l'antagonisme des contractions de strips aortiques isolés de lapin induites par la noradrénaline employée à la concentration de 2.10^-6 mole/l selon une technique dérivée de celle de Furchgott et Bhadrakom (J. Pharmacol., 1953, 108, 129-43). L'activité maximale est obtenue quand le COR28 35 est introduit dans le bain 60 mn avant l'agoniste. La CI50 (concentration inhibant 50% des contractions) est égale dans ces conditions à 1,52.10-' (1,12.10^-7 -2,07.10-') mole/l.

[3] = tested on: hypertension induite par la phényléphrine; assay: Alpha-blocking activity in vivo: antagonism of phenylephrine-induced hypertension in pithed, bivagotomised rats (i.v.); parameters: species or system rats amyélés et bivagotomisés; conditions: for ED50: Rattus norvegicus, iv, read-out: DE50 (the source's name)
Text: ln vivo l'activité alpha bloquante est appréciée par la détermination de l'antagonisme de l'hypertension induite par la phényléphrine. Le produit à tester est administré par voie intraveineuse à des rats amyélés et bivagotomisés selon la technique de J.S.Gillespie et T.S. Muir (Br.J. Pharmac. Chemother., 1967, 30, 78-87). On indique ci-après pour le COR28 35, en fonction de la dose administrée, l'activité maximale et le temps au bout duquel l'activité résiduelle est égale à 50% de l'activité maximale : 4,42.10^-7 M/kg, --77,8%. 30 mn; 10^-6 M/kg, -94,5%, 55 mn; 3,53.10^-6 M/kg, -97,1%, 90 mn. La DE50 déterminée dans ces conditions pour le COR28 35 est de 1,48.10^-8 mole/kg au bout de 2 mn, 6,77.10^-7 mole/kg au bout de 30 mn et 1,87.10^-6 mole/kg au bout de 60 mn.

[4] = tested on: effet hypertenseur induit par 4.10-' mg/kg de phényléphrine; assay: Alpha-blocking activity in conscious normal rats: antagonism of the phenylephrine pressor effect (oral); type: in vivo, rat Sprague-Dawley normal vigile
Text: L'activité alphabloquante des produits selon la présente invention à également été déterminée chez le rat Sprague-Dawley normal vigile. Les veines jugulaires et les artères carotides des animaux sont cathétérisées sous anesthésie à l'éther. Après récupération d'une heure, la pression artérielle et la fréquence cardiaque sont enregistrées de façon continue. L'activité des produits à tester, administrés par voie oral, vis à vis de l'effet hypertenseur induit par 4.10-' mg/kg de phényléphrine est déterminée. On indique ci-après pour le COR28 35, en fonction de la dose administrée, l'activité maximale et le temps au bout duquel l'activité résiduelle est égale à 50% de l'activité maximale : 5 mg/kg, -38,75%, 66 mm; 10 mg/kg, --37.18%. 65 mn; 20 mg/kg, -66,37%, 66 mn.

[5] = tested on: rats spontanément hypertendus; assay: Antihypertensive activity in spontaneously hypertensive rats (oral); type: in vivo
Procedure: Activité antihvoertensive : le produit à tester est administré par voie orale à des rats spontanément hypertendus. La pression artérielle est mesurée de façon indirecte en utilisant un sphygmomanomètre. Pour le COR28 35 administré à la dose de 100 mg/kg/j pendant 2 jours, la chute de pression maximale observée est de 14% le premier jour de traitement, 1 heure après le gavage. […] Administré dans les mêmes conditions à la dose de 50 mg/kg/j, la chute de pression artérielle maximale est de 15% 1 heure après gavage.

[6] = tested on: contractions induites par 2,5.10^-8 g/ml d'angiotensine I sur des préparations de segments d'iléon de cobaye; assay: Inhibition of angiotensin I-induced contractions of guinea-pig ileum segments; type: cell-based; conditions: concentration 10-' g/ml; angiotensin I 2,5.10^-8 g/ml added 2 mn after the compound
Text: L'activité inhibitrice des produits de la présente invention vis à vis des contractions induites par 2,5.10^-8 g/ml d'angiotensine I sur des préparations de segments d'iléon de cobaye a été déterminée. L'angiotensine 1 est introduite dans le bain 2 mn après le produit à tester. Dans ces conditions, le COR28 35 entraine 51% d'inhibition des contractions à la concentration de 10-' g/ml.

[7] = tested on: anaphylaxie passive cutanée; assay: Antiallergic activity: passive cutaneous anaphylaxis test; type: in vivo; conditions: rat, oral
Procedure: Activité antiallergigue : dans le test de l'anaphylaxie passive cutanée, le COR28 35 administré à 5 mg/kg par voie orale chez le rat entraine 60% d'activité. La prométhazine, administrée dans les mêmes conditions, entraine 53% d'activité à la dose de 10 mg/kg.

[8] = tested on: contraction induite par 5.10^-7g/ml de sérotonine sur iléon isolé de cobaye; assay: Antiserotoninergic activity: serotonin-induced contraction of isolated guinea-pig ileum; type: cell-based; conditions: serotonin 5.10^-7g/ml; compound in contact 15 mn before the agonist; limits in brackets; read-out: CI50 (ou concentration inhibant 50% des contractions)
Text: Activité antisérotoninergigue : le COR28 35 inhibe in vitro la contraction induite par 5.10^-7g/ml de sérotonine sur iléon isolé de cobaye. L'effet maximum est obtenu quand le COR28 35 est mis au contact de l'organe isolé 15 mn avant d'introduire l'agoniste. La CI50 (ou concentration inhibant 50% des contractions) est dans ces conditions de 1,58.10^-7(1,00.10^-7-2,51.10^-7) mole/l.

[9] = tested on: tremblements musculaires produits chez la souris par l'administration de 0,5 mg/kg d'oxotrémorine; assay: Anticholinergic activity: oxotremorine-induced muscle tremors in mice; type: in vivo; conditions: mouse, intraperitoneal, assessed one hour after administration, oxotremorine 0,5 mg/kg s.c.
Procedure: Activité anticholineraiaue : l'activité inhibitrice des produits de la présente invention vis à vis des tremblements musculaires produits chez la souris par l'administration de 0,5 mg/kg d'oxotrémorine par voie sous cutanée est déterminée. L'eftet est apprécié une heure après l'administration par voie intrapéritonéale des produits à tester; dans ces conditions, le COR28 35 est actif à la dose de 5mg/kg.

[10] = tested on: souris rendue hy- percholestérotémique; assay: Hypolipidaemic activity in mice made hypercholesterolaemic by diet; type: in vivo; conditions: mouse, oral, 200 mg/kg on days 6 and 7 of the diet
Procedure: Activité hvoolioidémiante : chez la souris rendue hy- percholestérotémique par un régime riche en cholestérol et acide cholique pendant 7 jours, l'administration de 200 mg/kg de COR28 35 par voie orale, le 6° et le 7° jour, entraine une diminution du cholestérol sérique de 17% et une diminution des HP-bétalipoprotéines de 27% accompagnées d'une diminution du rapport VLDL + LDL/cholestérol.

Cc1cc(OCCN(C)CCOc2cc(C)c(O)cc2C(C)C)c(C(C)C)cc1O [COR28 35]
mortality ([1]; ip, intraperitoneal, 1000 mg/kg, read-out: mortalité): 40% | LD50 ([1]; intravenous, limits in brackets, read-out: DL50 (the source's name)): 53.5 mg/kg | mortalité (souris; intraperitoneal, 500 mg/kg): aucune mortalité | mortalité (souris; oral, 300 mg/kg): aucune mortalité | IC50 [2]: 152 nM | ED50 ([3]; 2 min, i.v., after 2 mn): 0.0148 µmol/kg | ED50 ([3]; 0.5 h, i.v., after 30 mn): 0.677 µmol/kg | ED50 ([3]; 1 h, i.v., after 60 mn): 1.87 µmol/kg | activité maximale ([3]; i.v., 3,53.10^-6 M/kg): -97,1% | temps au bout duquel l'activité résiduelle est égale à 50% de l'activité maximale ([3]; i.v., 3,53.10^-6 M/kg): 90 mn | temps au bout duquel l'activité résiduelle est égale à 50% de l'activité maximale ([3]; i.v., 4,42.10^-7 M/kg): 30 mn | activité maximale ([3]; i.v., 10^-6 M/kg): -94,5% | temps au bout duquel l'activité résiduelle est égale à 50% de l'activité maximale ([3]; i.v., 10^-6 M/kg): 55 mn | activité maximale ([4]; 5 mg/kg): -38,75% | temps au bout duquel l'activité résiduelle est égale à 50% de l'activité maximale ([4]; 5 mg/kg): 66 min | temps au bout duquel l'activité résiduelle est égale à 50% de l'activité maximale ([4]; 10 mg/kg): 65 mn | activité maximale ([4]; 20 mg/kg): -66,37% | temps au bout duquel l'activité résiduelle est égale à 50% de l'activité maximale ([4]; 20 mg/kg): 66 mn | chute de pression artérielle maximale ([5]; 50 mg/kg/j, 1 hour after gavage): 15% | pression par rapport au lot témoin ([5]; 100 mg/kg/j for 2 days, 6 hours after gavage on the second day): significativement abaissée | chute de pression maximale observée ([5]; 100 mg/kg/j for 2 days, first day of treatment, 1 hour after gavage): 14% | inhibition des contractions [6]: 51% | activité ([7]; 5 mg/kg): 60% | IC50 [8]: 158 nM | activité inhibitrice vis à vis des tremblements musculaires [9]: actif | diminution des HP-bétalipoprotéines [10]: 27% | diminution du cholestérol sérique [10]: 17% | rapport VLDL + LDL/cholestérol [10]: diminution

CC(CN1c2ccccc2Sc2ccccc21)N(C)C (centres unmarked) [prométhazine, reference compound]
activité ([7]; 10 mg/kg): 53%

— patent publication EP0188169A1, “Bis-2-(4-hydroxy-2-isopropyl-5-methyl-phenoxy)-ethyl amines, process for their synthesis and pharmaceutical preparations containing them” (CORTIAL S.A., priority 1984, dated 1986)
